Source: patent publication US10800792B2, “Inhibitors of Bruton's tyrosine kinase and method of their use” (JANSSEN PHARMACEUTICA NV, priority 2015, dated 2020)

Molecular target: unphosphorylated-BTK kinase domain (UP-BTK), GST-tagged human BTK (389-659aa) (Homo sapiens (Human), UniProt Q06187)
Assay: BTK kinase Lanthascreen binding assay
Details: Lanthascreen tracer competition, 60 minutes incubation, pIC50 = negative log of the IC50 in molar; for IC50: read-out: BTK_I_binding pIC50 (converted)
Method in brief: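 Measures how well compounds compete with a fluorescence-labelled tracer for binding to BTK in its unphosphorylated state. IC50 values were fitted and expressed as pIC50 (negative logarithm of the molar IC50).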

Chain of unphosphorylated-BTK kinase domain (UP-BTK), GST-tagged human BTK (389-659aa) (Q06187 389-659): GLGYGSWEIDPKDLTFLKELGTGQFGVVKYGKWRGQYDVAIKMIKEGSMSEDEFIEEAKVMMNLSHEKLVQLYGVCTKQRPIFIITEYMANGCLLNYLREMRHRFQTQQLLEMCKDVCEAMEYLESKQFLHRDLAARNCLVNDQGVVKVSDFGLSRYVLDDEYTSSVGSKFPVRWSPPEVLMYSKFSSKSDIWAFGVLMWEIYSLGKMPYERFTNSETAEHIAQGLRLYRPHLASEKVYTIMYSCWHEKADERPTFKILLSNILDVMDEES

| SMILES | BTK_I_binding pIC50 | IC50 [nM] |
| --- | --- | --- |
| O=C(N[C@@H]1CCCN(C(=O)/C=C/CO)C1)c1sc2nccc3c2c1NC(=O)N3c1ccc(Oc2ccccc2)cc1 [Example 590, (R,E)-N-(1-(4-Hydroxybut-2-enoyl)piperidin-3-yl)-4-oxo-5-(4-phenoxyphenyl)-4,5-dihydro-3H-1-thia-3,5,8-triazaacenaphthylene-2-carboxamide] | 7.5 |  |
| C=CC(=O)N1CCC[C@@H](NC(=O)c2sc3nccc4c3c2NC(=O)N4c2ccnc(C3CCC3)c2)C1 [Example 591, (R)—N-(1-Acryloylpiperidin-3-yl)-5-(2-cyclobutylpyridin-4-yl)-4-oxo-4,5-dihydro-3H-1-thia-3,5,8-triazaacenaphthylene-2-carboxamide] | 7.5 |  |
| COCCC(=O)N1CCC[C@@H](NC(=O)c2sc3nccc4c3c2NC(=O)N4c2ccc(Oc3ccccc3)cc2)C1 [Example 593, (R)—N-(1-(3-Methoxypropanoyl)piperidin-3-yl)-4-oxo-5-(4-phenoxyphenyl)-4,5-dihydro-3H-1-thia-3,5,8-triazaacenaphthylene-2-carboxamide] | 7.2 |  |
| O=C(NC1CCN(C(=O)/C=C/CO)CC1)c1sc2nccc3c2c1NC(=O)N3c1ccc(Oc2ccccc2)cc1 [Example 596, (E)-N-(1-(4-Hydroxybut-2-enoyl)piperidin-4-yl)-4-oxo-5-(4-phenoxyphenyl)-4,5-dihydro-3H-1-thia-3,5,8-triazaacenaphthylene-2-carboxamide] | 6.9 |  |
| COCCC(=O)N1CCC(NC(=O)c2sc3nccc4c3c2NC(=O)N4c2ccc(Oc3ccccc3)cc2)CC1 [Example 597, N-(1-(3-Methoxypropanoyl)piperidin-4-yl)-4-oxo-5-(4-phenoxyphenyl)-4,5-dihydro-3H-1-thia-3,5,8-triazaacenaphthylene-2-carboxamide] | 6.9 |  |
| C=CC(=O)N1CCC[C@@H](NC(=O)c2sc3nccc4c3c2NC(=O)N4c2cccc(OC3CCC3)c2)C1 [Example 598] | 6.5 |  |
| C=CC(=O)N1CCCC(Nc2sc3nccc4c3c2NC(=O)N4c2ccc(Oc3ccccc3)cc2C)C1 (centres unmarked) [Example 600, 2-((1-Acryloylpiperidin-3-yl)amino)-5-(2-methyl-4-phenoxyphenyl)-3H-1-thia-3,5,8-triazaacenaphthylen-4(5H)-one] | 6.5 |  |
| Cc1cc(OC2CCC2)ccc1N1C(=O)Nc2c(C(=O)N[C@@H]3CCCNC3)sc3nccc1c23 [Example 605, (R)-5-(4-cyclobutoxy-2-methylphenyl)-4-oxo-N-(piperidin-3-yl)-4,5-dihydro-3H-1-thia-3,5,8-triazaacenaphthylene-2-carboxamide] |  | 501 |
| C=CC(=O)N1CCC(Nc2sc3nccc4c3c2NC(=O)N4c2ccc(Oc3ccccc3)cc2C)CC1 [Example 606, 2-((1-Acryloylpiperidin-4-yl)amino)-5-(2-methyl-4-phenoxyphenyl)-3H-1-thia-3,5,8-triazaacenaphthylen-4(5H)-one] | 6.2 |  |
| C=CC(=O)N1CCC[C@@H](NC(=O)c2sc3nccc4c3c2NC(=O)N4c2ccc(C)c(C(F)(F)F)c2)C1 [Example 607, (R)—N-(1-Acryloylpiperidin-3-yl)-5-(4-methyl-3-(trifluoromethyl)phenyl)-4-oxo-4,5-dihydro-3H-1-thia-3,5,8-triazaacenaphthylene-2-carboxamide] | 6.2 |  |
| Cc1cc(OC(C)C)ccc1N1C(=O)Nc2c(C(=O)N[C@@H]3CCCN(C(=O)/C=C/CN4C[C@@H]5OCCO[C@@H]5C4)C3)sc3nccc1c23 [Example 608, 5-(4-Isopropoxy-2-methylphenyl)-4-oxo-N—((R)-1-((E)-4-((4aR,7aS)-tetrahydro-2H-[1,4]dioxino[2,3-c]pyrrol-6(3H)-yl)but-2-enoyl)piperidin-3-yl)-4,5-dihydro-3H-1-thia-3,5,8-triazaacenaphthylene-2-carboxamide] | 6.2 |  |
| C=CC(=O)N1CCC[C@@H](NC(=O)c2sc3nccc4c3c2NC(=O)N4c2ccc(OC3COC3)cc2)C1 [Example 612, (R)—N-(1-Acryloylpiperidin-3-yl)-5-(4-(oxetan-3-yloxy)phenyl)-4-oxo-4,5-dihydro-3H-1-thia-3,5,8-triazaacenaphthylene-2-carboxamide] | 6.1 |  |
| O=C(N[C@@H]1CCCNC1)c1sc2nccc3c2c1NC(=O)N3c1cccc(OC2CCCC2)c1 [Example 613, (R)-5-(3-(Cyclopentyloxy)phenyl)-4-oxo-N-(piperidin-3-yl)-4,5-dihydro-3H-1-thia-3,5,8-triazaacenaphthylene-2-carboxamide] |  | 794 |
| C=CC(=O)N1C[C@@H](O)[C@@H](NC(=O)c2sc3nccc4c3c2NC(=O)N4c2ccc(OC(C)C)cc2C)C1 [Example 614, N-((3S,4R)-1-Acryloyl-4-hydroxypyrrolidin-3-yl)-5-(4-isopropoxy-2-methylphenyl)-4-oxo-4,5-dihydro-3H-1-thia-3,5,8-triazaacenaphthylene-2-carboxamide] | 6.1 |  |
| C=CC(=O)N1CCC[C@@H](NC(=O)c2sc3nccc4c3c2NC(=O)N4c2cnc(OC)nc2)C1 [Example 619, (R)—N-(1-Acryloylpiperidin-3-yl)-5-(2-methoxypyrimidin-5-yl)-4-oxo-4,5-dihydro-3H-1-thia-3,5,8-triazaacenaphthylene-2-carboxamide] | <6 |  |
| O=C(N[C@@H]1CCCNC1)c1sc2nccc3c2c1NC(=O)N3c1cccc(OC2CCC2)c1 [Example 621, (R)-5-(3-Cyclobutoxyphenyl)-4-oxo-N-(piperidin-3-yl)-4,5-dihydro-3H-1-thia-3,5,8-triazaacenaphthylene-2-carboxamide] | <6 |  |

Now from value to molecule, other results behind:

| BTK_I_binding pIC50 | SMILES | IC50 [nM] |
| --- | --- | --- |
| 7.4 | N#CN1CCC[C@@H](NC(=O)c2sc3nccc4c3c2NC(=O)N4c2ccc(Oc3ccccc3)cc2)C1 [Example 592, (R)—N-(1-Cyanopiperidin-3-yl)-4-oxo-5-(4-phenoxyphenyl)-4,5-dihydro-3H-1-thia-3,5,8-triazaacenaphthylene-2-carboxamide] |  |
| 7.1 | N#CN1CCC(NC(=O)c2sc3nccc4c3c2NC(=O)N4c2ccc(Oc3ccccc3)cc2)CC1 [Example 594, N-(1-Cyanopiperidin-4-yl)-4-oxo-5-(4-phenoxyphenyl)-4,5-dihydro-3H-1-thia-3,5,8-triazaacenaphthylene-2-carboxamide] |  |
| 7.1 | Cc1cc(Oc2ccccc2)cnc1N1C(=O)Nc2c(C(=O)N[C@@H]3CCCNC3)sc3nccc1c23 [Example 595, (R)-5-(3-Methyl-5-phenoxypyridin-2-yl)-4-oxo-N-(piperidin-3-yl)-4,5-dihydro-3H-1-thia-3,5,8-triazaacenaphthylene-2-carboxamide] |  |
| 6.5 | O=C(N[C@@H]1CCNC1)c1sc2nccc3c2c1NC(=O)N3c1cccc(-c2ccccc2)c1 [Example 599, (R)-5-([1,1′-Biphenyl]-3-yl)-4-oxo-N-(pyrrolidin-3-yl)-4,5-dihydro-3H-1-thia-3,5,8-triazaacenaphthylene-2-carboxamide] |  |
| 6.4 | CNCC(=O)N1CC[C@@H](NC(=O)c2sc3nccc4c3c2NC(=O)N4c2cccc(-c3ccccc3)c2)C1 [Example 601, (R)-5-([1,1′-Biphenyl]-3-yl)-N-(1-(2-(methylamino)acetyl)pyrrolidin-3-yl)-4-oxo-4,5-dihydro-3H-1-thia-3,5,8-triazaacenaphthylene-2-carboxamide] |  |
| 6.4 | O=C(N[C@@H]1CCNC1)c1sc2nccc3c2c1NC(=O)N3c1ccnc(-c2ccccc2)c1 [Example 602, (R)-4-Oxo-5-(2-phenylpyridin-4-yl)-N-(pyrrolidin-3-yl)-4,5-dihydro-3H-1-thia-3,5,8-triazaacenaphthylene-2-carboxamide] |  |
| 6.3 | O=C(N[C@@H]1CCCNC1)c1sc2nccc3c2c1NC(=O)N3c1cccc(C2CCC2)c1 [Example 603, (R)-5-(3-Cyclobutylphenyl)-4-oxo-N-(piperidin-3-yl)-4,5-dihydro-3H-1-thia-3,5,8-triazaacenaphthylene-2-carboxamide] |  |
| 6.3 | C=CC(=O)N1CCC[C@@H](NC(=O)c2sc3nccc4c3c2NC(=O)N4c2cccc(-c3ccccc3)n2)C1 [Example 604, (R)—N-(1-Acryloylpiperidin-3-yl)-4-oxo-5-(6-phenylpyridin-2-yl)-4,5-dihydro-3H-1-thia-3,5,8-triazaacenaphthylene-2-carboxamide] |  |
| 6.2 | O=C(N[C@@H]1CCCNC1)c1sc2nccc3c2c1NC(=O)N3c1cc(-c2ccccc2)ccn1 [Example 610, (R)-4-Oxo-5-(4-phenylpyridin-2-yl)-N-(piperidin-3-yl)-4,5-dihydro-3H-1-thia-3,5,8-triazaacenaphthylene-2-carboxamide] |  |
| 6.1 | O=C(N[C@@H]1CCCNC1)c1sc2nccc3c2c1NC(=O)N3c1cccc(OC2CCCCC2)c1 [Example 616, (R)-5-(3-(Cyclohexyloxy)phenyl)-4-oxo-N-(piperidin-3-yl)-4,5-dihydro-3H-1-thia-3,5,8-triazaacenaphthylene-2-carboxamide] |  |
| 6.0 | O=C(N[C@@H]1CCCNC1)c1sc2nccc3c2c1NC(=O)N3c1cncc(-c2ccccc2)c1 [Example 618, (R)-4-Oxo-5-(5-phenylpyridin-3-yl)-N-(piperidin-3-yl)-4,5-dihydro-3H-1-thia-3,5,8-triazaacenaphthylene-2-carboxamide] |  |
| <6 | O=C(N[C@@H]1CCCNC1)c1sc2nccc3c2c1NC(=O)N3c1cccc(OC(F)(F)F)c1 [Example 620, (R)-4-Oxo-N-(piperidin-3-yl)-5-(3-(trifluoromethoxy)phenyl)-4,5-dihydro-3H-1-thia-3,5,8-triazaacenaphthylene-2-carboxamide] |  |
| <6 | O=C(N[C@@H]1CCCNC1)c1sc2nccc3c2c1NC(=O)N3c1cccc(-c2ccccn2)c1 [Example 622, (R)-4-Oxo-N-(piperidin-3-yl)-5-(3-(pyridin-2-yl)phenyl)-4,5-dihydro-3H-1-thia-3,5,8-triazaacenaphthylene-2-carboxamide] |  |
